Reference: patent US9376420B2 (YUHAN CORPORATION, priority 2012, dated 2016)

Target: T1, human LXRβ (Homo sapiens, UniProt P55055)
T1 construct: expressed in transfected cells; host or cells: HEK293 cells (ATCC CRL-1573), transient transfection with pFA-hLXRβ/GAL4 and pUAS
T1 sequence (P55055 222-460 limits assumed): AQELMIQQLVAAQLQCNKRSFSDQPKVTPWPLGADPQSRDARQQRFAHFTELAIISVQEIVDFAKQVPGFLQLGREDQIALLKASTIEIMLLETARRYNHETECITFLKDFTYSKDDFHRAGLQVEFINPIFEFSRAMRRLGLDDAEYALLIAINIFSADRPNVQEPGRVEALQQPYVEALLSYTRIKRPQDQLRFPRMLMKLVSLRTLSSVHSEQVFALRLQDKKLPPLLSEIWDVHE
Assay: Assay for Transcriptional Activity of LXRβ (GAL4-hLXRβ LBD luciferase reporter, transient transfection)
Format: cell-based
Details: HEK293 cells transfected with pFA-hLXRβ/GAL4 and pUAS, 24 hours; for Emax: fold value in comparison with the control (DMSO-treated group); for EC50: increase of transcriptional activity of LXRβ, average of three independent tests
Description: The ligand-binding domain (LBD) cDNA of human LXRβ was inserted into an expression vector (pFA, Stratagene, USA) site adjacent to the yeast GAL4 transcription factor DNA binding domain to prepare an expression construct (pFA-hLXRβ/GAL4) (Willey et al., Genes & Development 9 1033-1045 (1995). The GAL4-responsive luciferase reporter plasmid, i.e., pUAS (Stratagene, USA), contained five copies of the GAL4 response element placed adjacent to the promoter and the luciferase reporter gene. The pFA-hLXRβ/GAL4 and pUAS were introduced into mammalian cells through transient transfection, followed by measuring the transcriptional activity of LXRβ.
HEK293 cells (human kidney cells, sATCC, CRL-1573) were incubated at a T-75 flask containing a DMEM supplemented with 10% fetal bovine serum (FBS) in a 37° C., until they reach about 70˜80% confluency. The culture media containing the cells was added to each well of a 96-well plate in a density of 5×10^4 cells per well. The pFA-hLXRβ/GAL4 and pUAS was transfected to the cells using a cationic-lipid transfection reagent (Lipofectamine™, Invitrogen), through culturing at 37° C. for 3 hours for transient transfection according to the manufacturer's instruction. The test compounds were dissolved in dimethyl sulfoxide (DMSO) in the concentrations of 50, 30, 10, 3, 1, 0.3, 0.1, 0.03, and 0.01 μM and then cells were treated with the prepared compound-containing solution (100 μl). The cells were incubated at 37° C. for 24 hours. After removal of the medium from each well, the lysis buffer (25 mM Tricine pH7.8, 2 mM DTT, 2 mM EGTA, 10% glycerol, 1% Triton X-100) was added with the amount of 20 μl per each well, and the plate was stirred at room temperature for 15 minutes. The luciferase reagent (prepared by adding 10 ml of the luciferase buffer (Promega) to 1 vial of the luciferase substrate (Promega)) was added to each well with the amount of 100 μl per well, followed by assaying with a luminometer according to the manufacturer's instruction.
The dose-response curve for calculating the EC50 values of the test compounds on the increase of transcriptional activity of LXRβ was prepared using the known LXR agonist (i.e., N-(2,2,2-trifluoro-ethyl)-N-[4-(2,2,2-trifluoro-1-hydroxy-1-trifluoromethyl-ethyl)-phenyl]-benzenesulfonamide) as a positive control and the vehicle (DMSO) as a negative control. The dose-response curve was produced from the 9-point curve having different concentrations at a 1/2 log unit. The EC50 value of a test compound, which is defined as a concentration for initiating the reaction corresponding to the half value between the Top value (i.e., the maximum value) and the Bottom value (baseline), was calculated according to the following equation. Y=Bottom+(Top-Bottom)/(1+10^((log EC50-X)*Hill Slope)).
In the above equation, Y is the observed value; X is the log concentration; Hill Slope is the slope of the curve; and Top and Bottom are the maximum value of test compound and the baseline value, respectively.
The following tables 1 and 2 show the EC50 values of the test compounds measured as in the above. In the tables 1 and 2, each EC50 value represents an average value obtained from three independent tests.

| Emax | EC50 | Structure (SMILES) |
| --- | --- | --- |
| 100 fold | 346 nM | CSc1ccc(-c2ccc(C3CC(C(O)(C(F)(F)F)C(F)(F)F)=NN3c3ccccc3Cl)s2)cn1 (stereo not shown) [Example 415, 1-(2-chloro-phenyl)-5-{5-[6-(methylsulfanyl)-pyridin-3-yl]-thiophen-2-yl}-3-[di-(trifluoromethyl)-hydroxy-methyl]-4,5-dihydro-1H-pyrazole] |
| 43 fold | 706 nM | CN(C)S(=O)(=O)N1CCN(c2ccc(C3CC(C(O)(C(F)(F)F)C(F)(F)F)=NN3c3ccccc3Cl)cc2)CC1 (stereo not shown) [Example 316, 1-(2-chloro-phenyl)-5-[4-(4-dimethylsulfamoyl-piperazin-1-yl)-phenyl]-3-[di-(trifluoromethyl)-hydroxy-methyl]-4,5-dihydro-1H-pyrazole] |
| 44 fold | 7990 nM | CS(=O)(=O)c1ccc(-c2cc(C3CC(C(F)(F)C(F)(F)F)=NN3c3ccc(F)cc3F)ccc2F)cc1 (stereo not shown) [Example 129, 1-(2,4-difluoro-phenyl)-5-(6-fluoro-4′-methanesulfonyl-biphenyl-3-yl)-3-pentafluoroethyl-4,5-dihydro-1H-pyrazole] |
| 35 fold | 745 nM | COc1ncc(-c2ccc(C3CC(C(O)(C(F)(F)F)C(F)(F)F)=NN3c3ccc(F)cc3F)cc2)cc1C=O (stereo not shown) [Example 379, 1-(2,4-difluoro-phenyl)-5-[4-(5-formyl-6-methoxy-pyridin-3-yl)-phenyl)-3-[di-(trifluoromethyl)-hydroxy-methyl]-4,5-dihydro-1H-pyrazole] |
| 69 fold | 3090 nM | O=S(=O)(C1CC1)N1CCN(c2cccc(C3CC(C(F)(F)C(F)(F)F)=NN3c3ccc(F)cc3F)c2)CC1 (stereo not shown) [Example 97, 5-[3-(4-cyclopropanesulfonyl-piperazin-1-yl)-phenyl]-1-(2,4-difluoro-phenyl)-3-pentafluoroethyl-4,5-dihydro-1H-pyrazole] |
| 80 fold | 1390 nM | CSc1ccc(-c2ccc(C3CC(C(O)(C(F)(F)F)C(F)(F)F)=NN3c3ccccc3Cl)cc2)cn1 (stereo not shown) [Example 266, 1-(2-chloro-phenyl)-5-[4-(6-methylsulfanyl-pyridin-3-yl)-phenyl]-3-[di-(trifluoromethyl)-hydroxy-methyl]-4,5-dihydro-1H-pyrazole] |
| 73 fold | 1020 nM | CSc1cccc(-c2ccnc(C3CC(C(F)(F)C(F)(F)F)=NN3c3ccc(F)cc3F)c2)c1 (stereo not shown) [Example 172, 1-(2,4-difluoro-phenyl)-5-[4-(3-methylsulfanyl-phenyl)-pyridin-2-yl]-3-pentafluoroethyl-4,5-dihydro-1H-pyrazole] |
| 81 fold | 119 nM | O=C(c1ccc(Cl)cc1)N1CC=C(c2cccc(C3CC(C(O)(C(F)(F)F)C(F)(F)F)=NN3c3ccccc3Cl)c2)CC1 (stereo not shown) [Example 237, 5-{3-[1-(4-chloro-benzoyl)-1,2,3,6-tetrahydropyridin-4-yl]-phenyl}-1-(2-chloro-phenyl)-3-[di-(trifluoromethyl)-hydroxy-methyl]-4,5-dihydro-1H-pyrazole] |
| 115 fold | 784 nM | Cc1ccccc1-c1ccc(C2CC(C(O)(C(F)(F)F)C(F)(F)F)=NN2c2ccccc2Cl)cc1 (stereo not shown) [Example 249, 1-(2-chloro-phenyl)-5-(2′-methyl-biphenyl-4-yl)-3-[di-(trifluoromethyl)-hydroxy-methyl]-4,5-dihydro-1H-pyrazole] |
| 57 fold | 7180 nM | CSc1ccc(-c2cccc(C3CC(C(F)(F)C(F)(F)F)=NN3c3ccc(F)cc3F)c2)cn1 (stereo not shown) [Example 77, 1-(2,4-difluoro-phenyl)-5-[3-(2-methylsulfanyl-pyridin-5-yl)-phenyl]-3-pentafluoroethyl-4,5-dihydro-1H-pyrazole] |
| 6 fold | 1930 nM | O=S(=O)(C1CC1)N1CC=C(c2cccc(N3N=C(C(O)(C(F)(F)F)C(F)(F)F)CC3c3ccccc3Cl)c2)CC1 (stereo not shown) [Example 438, 5-(2-chloro-phenyl)-1-[3-(1-cyclopropanesulfonyl-1,2,3,6-tetrahydropyridin-4-yl)-phenyl]-3-[di-(trifluoromethyl)-hydroxy-methyl]-4,5-dihydro-1H-pyrazole] |
| 55 fold | 1070 nM | Nc1cccc(-c2ccc(C3CC(C(O)(C(F)(F)F)C(F)(F)F)=NN3c3ccccc3Cl)cc2)c1 (stereo not shown) [Example 253, 5-(3′-amino-biphenyl-4-yl)-1-(2-chloro-phenyl)-3-[di-(trifluoromethyl)-hydroxy-methyl]-4,5-dihydro-1H-pyrazole] |
| 54 fold | 344 nM | CCS(=O)(=O)N1CCCN(c2ccc(C3CC(C(O)(C(F)(F)F)C(F)(F)F)=NN3c3ccccc3Cl)cc2)CC1 (stereo not shown) [Example 323, 1-(2-chloro-phenyl)-5-[4-(4-ethanesulfonyl-homopiperazin-1-yl)-phenyl]-3-[di-(trifluoromethyl)-hydroxy-methyl]-4,5-dihydro-1H-pyrazole] |
| 34 fold | 636 nM | Cc1ccccc1-c1ccc(C2CC(C(O)(C(F)(F)F)C(F)(F)F)=NN2c2ccc(F)cc2F)cc1 (stereo not shown) [Example 371, 1-(2,4-difluoro-phenyl)-5-(2′-methyl-biphenyl-4-yl)-3-[di-(trifluoromethyl)-hydroxy-methyl]-4,5-dihydro-1H-pyrazole] |
| 46 fold | 94 nM | Cc1cc(F)ncc1-c1ccc(C2CC(C(O)(C(F)(F)F)C(F)(F)F)=NN2c2ccc(F)cc2F)cc1 (stereo not shown) [Example 384, 1-(2,4-difluoro-phenyl)-5-[4-(6-fluoro-4-methyl-pyridin-3-yl)-phenyl]-3-[di-(trifluoromethyl)-hydroxy-methyl]-4,5-dihydro-1H-pyrazole] |
| 89 fold | 1660 nM | CS(=O)(=O)c1ccc(-c2cccc(C3CC(C(F)(F)C(F)(F)F)=NN3c3ccc(Cl)cc3Cl)c2)cc1 (stereo not shown) [Example 41, 1-(2,4-dichloro-phenyl)-5-(4′-methanesulfonyl-biphenyl-3-yl)-3-pentafluoroethyl-4,5-dihydro-1H-pyrazole] |
| 29 fold | 509 nM | CN(CCCS(=O)(=O)c1cccc(-c2cccc(N3N=C(C(F)(F)C(F)(F)F)CC3c3ccc(F)cc3F)c2)c1)C(=O)OC(C)(C)C (stereo not shown) [Example 211, 5-(2,4-difluoro-phenyl)-1-{3′-[3-(N-BOC-N-methyl-amino)-propane-1-sulfonyl]-biphenyl-3-yl}-3-pentafluoroethyl-4,5-dihydro-1H-pyrazole] |
| 96 fold | 397 nM | CS(=O)(=O)c1cccc(-c2cccc(C3CC(C(F)(F)C(F)(F)F)=NN3c3ccccc3Cl)n2)c1 (stereo not shown) [Example 157, 1-(2-chloro-phenyl)-5-[2-(3-methanesulfonyl-phenyl)-pyridin-6-yl]-3-pentafluoroethyl-4,5-dihydro-1H-pyrazole] |
| 39 fold | 4770 nM | Fc1ccc(N2N=C(C(F)(F)C(F)(F)F)CC2c2cccc(-c3cncnc3)c2)c(F)c1 (stereo not shown) [Example 57, 1-(2,4-difluoro-phenyl)-3-pentafluoroethyl-5-[3-(5-pyrimidyl)-phenyl]-4,5-dihydro-1H-pyrazole] |
| 107 fold | 625 nM | Cc1ccc(-c2ccc(C3CC(C(O)(C(F)(F)F)C(F)(F)F)=NN3c3ccccc3Cl)cc2)cc1 (stereo not shown) [Example 250, 1-(2-chloro-phenyl)-5-(4′-methyl-biphenyl-4-yl)-3-[di-(trifluoromethyl)-hydroxy-methyl]-4,5-dihydro-1H-pyrazole] |
